3 molecules from patent US20210017607A1, “Methods of Predicting Responsiveness to Cancer Therapies” (The University of Chicago, priority 2019, published 2021) can be followed below.

The subject of series [1] is PI3K. The series can be described thus: In vitro target inhibition by western blotting (PI3K/AKT). In kind it is cell-based, mouse. For orientation: In western blotting, separated proteins are transferred to a membrane and probed.
Series [2] concerns B6-Myc (STING^hi) cells. Description: p-γH2AX foci (DNA DSBs) by confocal microscopy. The series is classed as cell-based, mouse. As to conditions: 36 hours; rucaparib 500 nM, buparlisib 1 μM. The procedure: FIGS. 17A-17C. PARPi/PI3Ki combination induces intracellular DNA DSBs, and proportionate release of MV surface-associated DNA DSBs from B6-Myc (STING^hi) cancer cells, without affecting cellular viability. B6-Myc (STING^hi) cells were treated with indicated drugs singly or in combination for 36 hours. (17A) Cells were stained with anti-mouse specific p-γH2AX antibody and fluorescently labeled secondary antibody for determination of DNA DSBs, which were quantified by confocal microscopy. (17B) Protein extracts from cells in (17A) were analyzed for the indicated pharmacodynamic biomarkers by western blotting. […] Significance/p-values were calculated by one-way ANOVA.
Confocal Microscopy. […] Staining for DNA DSBs was done with anti-mouse primary antibody specific for phospho-γH2AX (1:500 dilution, Cell Signaling Technology and secondary anti-rabbit IgG antibody conjugated to AF647 (1:1000-1:2000 dilution in 1×PBS, Thermo Fisher Scientific®). Anti-mouse specific β-actin conjugated to Phycoerythrin (PE, Thermo Fisher Scientific®) was used to stain the cytoskeleton. All staining procedures were done at 4° C. for 30 minutes. Cells were then washed 3 times with 1×PBS and imaged immediately. All images were collected using an Olympus Fluoview® 1000 using a 100× oil objective. Acquired images were analyzed by ImageJ software, developed at NIH.

The test system of series [3] is bone marrow derived macrophages (BMDMs). The series can be described thus: IFNβ1 ELISA of supernatants after DMXAA treatment. The series is classed as cell-based, mouse. As to conditions: 36 hours. The procedure:
(§1) FIGS. 15A-15E. Differential STING pathway activation within B6-Myc (STING^hi) cell lines and BMDMs relative to Myc-CAP (STING^lo) cells. (15A, 15B) The indicated cancer cell lines and BMDMs were treated with DMXAA (mouse STING agonist) for 1 and 24 hours, respectively, and protein extracts were interrogated for cGAS/STING pathway activation with the indicated antibodies by Western blotting. Supernatants were collected from for IFNβ1 ELISA following 36 hours of treatment with DMXAA (15C, 15D). (15E) Syngeneic Myc-CAP (STING^lo) tumors were processed into single cell suspensions and used for phycoerythrin-based sorting of CD45+ cellular fractions. Equal numbers of cells from these fractions were stimulated with DMXAA. Supernatants were collected at 36 hrs for detection of IFNB1 by ELISA; n=3 independent experiments; Significance/p-values were calculated by one-way Anova (for 15C & 15E) or paired t-test (for 15D); TAM=tumor associated macrophage; s.e.=short exposure; l.e.=long exposure.
Generation of BMDMs. Bone marrow derived macrophages were differentiated as previously described. […]
On the technique in general: In an ELISA, binding on a coated surface is turned into a signal by an enzyme label.

Series [4] concerns Myc-CAP tumors with Intermediate tumor cell intrinsic levels of STING. The series can be described thus: Survival of mice bearing STING-overexpressing Myc-CAP tumors. The settings on record: DMXAA single intra-tumoral dose. In kind it is in vivo, mouse. Here is the method: FIG. 52. STING agonist treatment is protective to mice bearing Myc-CAP tumors with Intermediate (not high) tumor cell intrinsic levels of STING. Syngeneic mice bearing Myc-CAP wild-type (WT) and STING overexpressed (STING OE; clone 34) or STING intermediate (STING OE; clone 35) tumors (200 mm^3) were treated with DMXAA ([…] intra-tumoral dose). Tumors were monitored until cut-off tumor volume of 2500 mm^3, and Kaplan Meier curves were plotted. n=3 mice per cohort.

The test system of series [5] is cGAS/STING signaling pathway components p-TBK1 and p-IRF3. Description: Western blotting of cGAS/STING pathway activation. In kind it is cell-based, mouse. Here is the method:
as §1
Western Blot Analysis. RIPA and T-PER buffer (Thero Scientific®), supplemented with protease (Roche®) and HALT phosphatase inhibitor cocktail (Roche®), were used for preparation of lysates from in vitro cell lines and whole tumor chunks, respectively. For western blotting, the following antibodies were used from Cell Signaling Technology®: Polyclonal rabbit anti-mouse-phospho-γH2AX, phospho-AKT, total AKT, cGAS, STING, phospho-IRF3, total IRF3, phospho-TBK1, total TBK1, PTEN, β-actin and GAPDH. Monoclonal anti-mouse PAR antibody was obtained from Trevigen®. Images of scanned blots were processed using ADOBE Photoshop®.

Series [6] concerns prostate-specific PTEN^−/−p53^−/− GEMM tumors. The series can be described thus: Ex vivo GEMM tumor suspensions, IFNβ1 ELISA. As to conditions: DMXAA 50 μg/mL, 36 hours. In kind it is cell-based, mouse. Here is the method: FIG. 39. […] Tumors from prostate-specific PTEN^−/−p53^−/− GEMM tumors were processed into single cell suspensions and treated with indicated drugs (DMXAA at 50 μg/mL, Buparlisib at 1000 nM, Rucaparib at 500 nM). At 36 hours supernatants were collected for ELISA based detection of IFNβ1; n=1 independent experiment.
Ex vivo Assays. Subcutaneous tumors were isolated by gentle mechanical dissociation in the presence of 1×RPMI (supplemented with 10% fetal bovine serum, 1% penicillin-streptomycin and 2% L-glutamine). 1×ACK was used for RBC lysis. Single cell suspensions were washed twice with media, by centrifuging at 500×g for 5 min at 4° C. and quantified using 0.1% […] solution. Cells were seeded at a concentration 0.2-0.5 million cells/mL and treated with indicated drugs singly or in combination for 36 hours. DMXAA (positive control) was used at indicated concentration. Supernatants from treated BMDMs were collected at the end of 36 hours and processed as per ELISA protocol for detection of cytokines/chemokines.

In the case of `Nc1cc(C(F)(F)F)c(-c2cc(N3CCOCC3)nc(N3CCOCC3)n2)cn1` [buparlisib], in series [1] (B6-Myc cells (FIG. 17B)), the “concentration that achieved complete target inhibition in vitro” value is 1 µM. The molecule also showed a target inhibitory concentration in series [1] (BMDMs (FIG. 30A)) of 1. In addition, the “activation of the PI3K/AKT pathway within BMDMs” value in series [1] (BMDMs co-cultured with R-MVs, 24 hours) was “inhibits activation of the PI3K/AKT pathway”. The “complete target inhibition concentration” value in series [1] (Myc-CAP cells (FIG. 29B)) came out at 1 µM.
Turning to `CNCc1ccc(-c2[nH]c3cc(F)cc4c3c2CCNC4=O)cc1` [rucaparib], the “DNA double-strand breaks (p-γH2AX foci)” value in series [2] is “did not show a statistically significant increase”.
Take `Cc1ccc2c(=O)c3cccc(CC(=O)O)c3oc2c1C` [DMXAA, 5,6-Dimethylxanthenone-4-acetic Acid]: the “fold induction in IFN-β levels” value in series [3] is 46.4 fold. For the same molecule, the “survival (Kaplan Meier)” value in series [4] is reported as “protective”. Moreover, the “activation of p-TBK1 and p-IRF3” value in series [5] (B6-Myc (STING^hi) cells) is “activated”; in series [5] (Myc-CAP (STING^lo) cells), “not observed”. For the same molecule, the “activation of c-GAS/STING signaling pathway” value in series [5] (BMDMs) was “activated the c-GAS/STING signaling pathway”. Moreover, the “STING activation (IFNβ1 ELISA)” value in series [6] was “induces STING activation”.
